The numbers were not newly measured in PMC8778187, “A New Oxygen Containing Pyclen-Type Ligand as a Manganese(II) Binder for MRI and ^52Mn PET Applications: Equilibrium, Kinetic, Relaxometric, Structural and Radiochemical Studies” (Molecules, 2022), which cites them from elsewhere.

Where two headings read alike, the source gives them in different places. Marks after values point to notes of the source that are not given here.

For series [1] the following is noted: T = 25 °C, I = 0.15 M NaCl, ref 16 (PC2A ligands), 12 (DO2A ligands), cited from earlier work; for log K1^H / log K2^H / log K3^H / Σlog Κ2^H: 20 (H21,7-O2DO2A); for Σlog Κ2^H: log K1^H + log K2^H.
The conditions of series [2]: Ca^2+ complex, cited from earlier work.
For series [3] the following is noted: T = 25 °C, cited from earlier work; for log KMnL / log KMnHL / pMn: ref 16 (PC2A ligands), 12 (DO2A ligands); for log KMnL / pMn: 20 (H21,7-O2DO2A); for pMn: pMn = −log(Mn(II)free), cMn^2+ = cligand = 1 × 10^−5 M, pH = 7.4.
For series [4] the following is noted: Zn^2+ complex, T = 25 °C, I = 0.15 M NaCl, cited from earlier work; for log KMnLOH: DO2A values carry footnote f, ref 12 (DO2A ligands); for log KMnLOH / log KMnL: 20 (H21,7-O2DO2A); for log KMnL / log KMnHL: ref 16 (PC2A ligands), 12 (DO2A ligands).
The conditions of series [5]: Cu^2+ complex, T = 25 °C, I = 0.15 M NaCl, cited from earlier work; for log KMnHL / log KMnL: ref 16 (PC2A ligands), 12 (DO2A ligands), 20 (H21,7-O2DO2A).
The conditions of series [6]: Mn(II) complex, 25 °C, pH = 7.4, cited from earlier work.
The conditions of series [7]: Mg^2+ complex, cited from earlier work.
The conditions of series [8]: cited from earlier work.
For series [9] the following is noted: pH = 6.0, 25 equivalents of Zn(II), 37 °C, cited from earlier work.
For series [10] the following is noted: cited from earlier work. The source holds these as a separate data set.
Where [11] appears, read: T = 25 °C, I = 0.15 M NaCl, ref 16 (PC2A ligands), 12 (DO2A ligands), 20 (H21,7-O2DO2A).
[12] abbreviates: 0.49 T, ref 16 (PC2A ligands), 12 (DO2A ligands), 20 (H21,7-O2DO2A).
The mark [13] stands for this setting: T = 25 °C, I = 0.15 M NaCl, ref 16 (PC2A ligands), 20 (H21,7-O2DO2A).

Regarding `O=C(O)CN1CCNCCNCCN(CC(=O)O)CC1` [H21,4-DO2A], in [1], the “log K1^H” value is on record as 11.44, the “log K2^H” value is listed as 9.51, the “log K3^H” value was 4.14 and the “log K4^H” value is 1.55. In addition, in series [1], the “Σlog Κ2^H” value was 20.95. In addition, the “log KMnL” value in series [2] (setting [11]) is on record as 8.62. Moreover, in series [3] (Mn^2+ complex, I = 0.15 M NaCl), the “log KMnL” value is 15.68 and the “log KMnHL” value is listed as 4.15. Moreover, in series [3], the pMn is reported as 7.27. Further, in series [4], the “log KMnLOH” value is listed as 1.65 ^f, the “log KMnL” value is recorded as 18.03 and the “log KMnHL” value was 3.58. Moreover, in [5], the “log KMnHL” value was 2.95 and the “log KMnL” value is 24.43 ^g. In series [6] (setting [12]), the r1p is 2.10 mM⁻¹ s⁻¹.
Turning to `O=C(O)CN1CCNCCN(CC(=O)O)CCNCC1` [H21,7-DO2A], in series [1], the “log K1^H” value is given as 11.69, the “log K2^H” value is listed as 9.75, the “log K3^H” value is recorded as 3.97 and the “log K4^H” value is 2.68. Also, the “Σlog Κ2^H” value in [1] is given as 21.44. Also, in series [2] (setting [11]), the “log KMnL” value is on record as 8.86. Besides, in series [3] (Mn^2+ complex, I = 0.15 M NaCl), the “log KMnL” value was 14.64 and the “log KMnHL” value was 4.40. In series [3], the pMn was 6.52. Also, in series [4], the “log KMnLOH” value is 1.78 ^f, the “log KMnL” value was 18.86 and the “log KMnHL” value is reported as 4.23. In series [5], the “log KMnHL” value is 3.06 and the “log KMnL” value is 24.24. Moreover, the r1p in [6] (setting [12]) was 1.50 mM⁻¹ s⁻¹.
With `O=C(O)CN1CCOCCN(CC(=O)O)CCOCC1` [H21,7-O2DO2A], in series [1], the “log K1^H” value is recorded as 8.05, the “log K2^H” value is listed as 7.43, the “log K3^H” value is given as 2.06 and the “Σlog Κ2^H” value is 15.48. In series [7] (setting [13]), the “log KMnL” value is reported as 3.91. Also, in series [2] (setting [11]), the “log KMnL” value is recorded as 6.96. Besides, in [3] (Mn^2+ complex, I = 0.15 M NaCl), the “log KMnLOH” value is reported as 12.38 and the “log KMnL” value is on record as 9.38. For the same molecule, the pMn in series [3] is recorded as 6.67. In series [4], the “log KMnLOH” value was 11.40 and the “log KMnL” value was 10.55. In addition, in series [5], the “log KMnLOH” value was 11.95, the “log KMnHL” value is given as 2.46 and the “log KMnL” value is 14.56. The r1p in series [6] (setting [12]) is 2.86 mM⁻¹ s⁻¹.
With `O=C(O)CN1CCNCc2cccc(n2)CN(CC(=O)O)CC1` [H23,6-PC2A], in [1], the “log K1^H” value is given as 10.72. Further, the “log K2^H” value in series [1] is 8.37. In addition, the “log K3^H” value in series [1] is 3.81. Besides, the “log K4^H” value in series [1] is reported as 1.26. Besides, in series [1], the “Σlog Κ2^H” value was 19.09. Also, the “log KMnHL” value is given as 5.87 in [7] (T = 25 °C, I = 0.15 M NaCl); 5.27 in [2] (T = 25 °C, I = 0.15 M NaCl); 3.06 in series [3] (Mn^2+ complex, I = 0.15 M NaCl); 2.36 in series [4]; 2.37 ^g in series [5]. Moreover, the “log KMnL” value in series [7] (setting [13]) is recorded as 8.11; in series [2] (setting [11]), 9.57; in [3] (Mn^2+ complex, I = 0.15 M NaCl), 15.53; in series [4], 20.37; in [5], 24.09 ^g. In addition, the pMn in series [3] is 8.09. Besides, the r2p in [6] (0.49 T) was 3.49 mM⁻¹ s⁻¹; in series [6] (1.41 T) it was 4.20 mM⁻¹ s⁻¹. The figures for the r1p in series [6] (setting [12]) and in [6] (1.41 T) were 2.72 mM⁻¹ s⁻¹ and 2.40 mM⁻¹ s⁻¹, respectively.
Take `O=C(O)CN1CCNCCN(CC(=O)O)Cc2cccc(n2)C1` [H23,9-PC2A, pyclen-3,9-diacetate]: in [1], the “log K1^H” value is reported as 12.25. Moreover, the “log K2^H” value in [1] was 5.97. For the same molecule, in series [1], the “log K3^H” value is 3.47. The “log K4^H” value in [1] is recorded as 1.99. For the same molecule, the “Σlog Κ2^H” value in [1] was 18.22. The “log KMnHL” value in [7] (T = 25 °C, I = 0.15 M NaCl) is 5.91; in series [2] (T = 25 °C, I = 0.15 M NaCl), 5.08; in series [3] (Mn^2+ complex, I = 0.15 M NaCl), 2.14; in [4], 2.74; in series [5], 2.12 ^g. The “log KMnL” value in series [7] (setting [13]) is 9.84; in [7] (value in parenthesis), 8.4; in [2] (setting [11]), 9.92; in series [2] (value in parenthesis) it was 10.0; in series [3] (Mn^2+ complex, I = 0.15 M NaCl) it was 17.09; in series [4] it was 19.49. The “log KMnL” value in series [5] is 23.58 ^g. Besides, the pMn in series [3] was 8.64. Moreover, the r2p in series [6] (0.49 T) was 3.96 mM⁻¹ s⁻¹; in series [6] (1.41 T), 4.82 mM⁻¹ s⁻¹. Besides, the r1p is 2.91 mM⁻¹ s⁻¹ in series [6] (setting [12]) and 2.24 mM⁻¹ s⁻¹ in [6] (1.41 T).
As to `O=C([O-])CN1CCNCCN(CC(=O)[O-])Cc2cccc(n2)C1.[Mn+2]` [[Mn(3,9-PC2A)]], the pMn in series [3] was 8.64. In addition, in series [8] (20 MHz, 298 K), the “r1^298_20 MHz” value is 2.91 mM⁻¹ s⁻¹. Besides, in series [8] (activation enthalpy of water exchange), the “ΔH^‡” value is 37.5 kJmol^−1. The q in series [8] (hydration number, fixed during the fitting procedure) is recorded as 1. Moreover, the figures for the “kex^298” value in [8] (water exchange rate with bulk solvent) and in [8] (water exchange rate) were 1.26e+08 s⁻¹ and 12.6 10^7s^−1, respectively. The kobs entry in [9] (previously reported) is “(3.28 ± 0.03) × 10^−4 s^−1”. The “t1/2 (h) at pH = 7.4” value in [10] (extrapolated to pH = 7.4, ref 16 (PC2A complexes), 12, 13, 20) was 21.0 h. For the same molecule, in [10] (metal assisted dissociation, T = 25 °C, I = 0.15 M NaCl), the k3 was 0.036 M⁻¹ s⁻¹. Also, the k1 in series [10] (proton assisted dissociation, T = 25 °C, I = 0.15 M NaCl, ref 16 (PC2A complexes), 12, 13, 20) is 221 M⁻¹ s⁻¹. In series [10] (protonation constant of the complex from kinetic fit, T = 25 °C, I = 0.15 M NaCl), the “KMnL x H” value is given as 3.6 × 10^3. The KML x Cu in [10] (stability constant of dinuclear intermediate, T = 25 °C, I = 0.15 M NaCl, unit assumed) was 26 M⁻¹.
On to `O=C([O-])CN(CC(=O)[O-])C1CCCCC1N(CC(=O)[O-])Cc1ccccn1.[Mn+2]` (stereo not shown) [[Mn(PyC3A)]], for which the kobs result in series [9] is recorded as “(6.76 ± 0.04) × 10^−4 s^−1”.
